Measurements published in patent US11001590B2, “Pyrazolopyrimidine derivatives” (BAYER ANIMAL HEALTH GMBH, priority 2016, dated 2021).

Key:
C. elegans Slo-1a = C. elegans Slo-1a (Caenorhabditis elegans, UniProt Q95V25); assay: In vitro assay 1: C. elegans Slo-1a, action at a recombinant C. elegans CHO cell line (membrane potential measurement)
Experimental: In Vitro Assay 1: C. Eleqans Slo-La—Action at a Recombinant C. elegans Cell Line
Cells were cultured at 37° C. and 5% CO2 in MEMalpha with Gutamax I (Invitrogen, Nr.: 32571), supplemented with 10% (v/v) heat inactivated fetal bovine serum (Invitrogen, Nr.: 10500), G418 (1 mg/ml, Invitrogen, Nr.: 10131). Cells were detached using Accutase (Sigma, Nr.: A6964).
Membrane Potential Measurements
Laboratory compound testing was performed on 384-well microtiter plates (MTPs, Greiner, Nr.: 781092). 8000 cells/well were plated onto 384-well MTPs and cultured for 20 to 24 hours at 37° C. and 5% CO2. After removal of the cell culture medium, the cells were washed once with tyrode (150 mM NaCl, 0.3 mM KCl, 2 mM CaCl2, 1 mM MgCl2, 0.8 mM NaH2PO4, 5 mM Glucose, 28 mM Hepes, pH 7.4) and then loaded with the voltage sensitive dye of the Membrane Potential Assay Kit diluted in tyrode for 1 h at room temperature.
After starting the measurement of fluorescence using a FLIPR Tetra (Molecular Devices, Exc. 510-545 nm, Emm. 565-625 nm), test compounds were added followed by the addition of KCl tyrode (final assay concentration: 70 mM KCl, 2 mM CaCl2, 1 mM MgCl2, 0.8 mM NaH2PO4, 5 mM Glucose, 28 mM Hepes, pH 7.4, including the voltage sensitive dye). The measurement was completed after 7 minutes.

[1] = log P by HPLC on reversed phase columns (Method L0; [a] acidic, [b] neutral range)
Experimental: Calibration was done with straight-chain alkan-2-ones (with 3 to 16 carbon atoms) with known log P values (measurement of log P values using retention times with linear interpolation between successive alkanones). Lambda-max-values were determined using UV-spectra from 200 nm to 400 nm and the peak values of the chromatographic signals.

[2] = tested on: Dirofilaria immitis microfilariae; assay: In vitro assay 3: Dirofilaria immitis microfilariae (DIROIM L1), motility; details: 72 h, reduction of motility vs negative control, 72 h incubation

C. elegans Slo-1a, sequence (Q95V25 whole entry): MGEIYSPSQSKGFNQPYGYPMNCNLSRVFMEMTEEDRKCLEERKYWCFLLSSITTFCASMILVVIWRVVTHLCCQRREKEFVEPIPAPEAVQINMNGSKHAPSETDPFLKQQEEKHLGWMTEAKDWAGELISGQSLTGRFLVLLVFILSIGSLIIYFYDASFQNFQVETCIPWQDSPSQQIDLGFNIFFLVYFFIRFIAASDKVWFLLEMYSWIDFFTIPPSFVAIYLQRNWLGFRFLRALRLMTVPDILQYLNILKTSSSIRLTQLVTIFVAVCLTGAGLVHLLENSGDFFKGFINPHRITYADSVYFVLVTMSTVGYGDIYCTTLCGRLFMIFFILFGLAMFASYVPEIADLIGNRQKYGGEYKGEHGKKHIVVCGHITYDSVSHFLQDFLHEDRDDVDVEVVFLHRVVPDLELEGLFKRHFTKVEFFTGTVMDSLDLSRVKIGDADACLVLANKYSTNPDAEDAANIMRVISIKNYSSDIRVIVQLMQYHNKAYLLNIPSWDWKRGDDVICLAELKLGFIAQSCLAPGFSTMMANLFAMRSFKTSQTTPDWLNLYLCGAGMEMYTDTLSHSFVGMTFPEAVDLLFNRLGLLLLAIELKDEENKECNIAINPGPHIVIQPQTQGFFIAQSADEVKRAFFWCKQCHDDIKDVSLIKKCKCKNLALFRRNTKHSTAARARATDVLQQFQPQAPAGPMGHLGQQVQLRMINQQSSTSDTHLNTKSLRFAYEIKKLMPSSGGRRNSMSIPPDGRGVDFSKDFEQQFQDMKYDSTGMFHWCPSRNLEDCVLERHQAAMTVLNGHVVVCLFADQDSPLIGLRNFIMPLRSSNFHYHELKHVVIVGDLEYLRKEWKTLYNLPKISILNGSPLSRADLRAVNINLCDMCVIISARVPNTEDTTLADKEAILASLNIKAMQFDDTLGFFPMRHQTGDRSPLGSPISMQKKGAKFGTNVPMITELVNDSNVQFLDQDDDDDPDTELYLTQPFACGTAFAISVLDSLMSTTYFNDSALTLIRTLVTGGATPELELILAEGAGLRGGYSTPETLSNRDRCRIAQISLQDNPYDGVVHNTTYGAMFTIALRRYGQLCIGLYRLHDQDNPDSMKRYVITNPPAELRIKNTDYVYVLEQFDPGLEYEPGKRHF

| Structure (SMILES) | EC50 (C. elegans Slo-1a) [nM] | chromatographic logP [1] | EC50 [2] [µg/mL] |
| --- | --- | --- | --- |
| COc1cc(-c2c(C)nn3c(C(C)C)c(C(=O)N[C@H]4CCOc5ccccc54)cnc23)cc(OC)c1OC [Example 249] | 158 | 3.94 | < 1 |
| Cc1nn2c(C(C)C)c(C(=O)N[C@H]3CCOc4ccccc43)cnc2c1-c1ccc2c(c1)OC(F)(F)O2 [Example 251] | 3.16 | 5.03 | < 0.1 |
| Cc1nn2c(C(C)C)c(C(=O)N[C@H]3CCOc4ccccc43)cnc2c1-c1ccc2c(c1)CC(=O)N2 [Example 252] | 1260 | 2.87 | < 10 |
| Cc1nn2c(C(C)C)c(C(=O)N[C@H]3CCOc4ccccc43)cnc2c1-c1cc(O)c(F)c(F)c1 [Example 259] | 15.8 | 3.61 | < 1 |
| Cc1nn2c(C(C)C)c(C(=O)N[C@H]3CCOc4ccccc43)cnc2c1-c1ccccc1C#N [Example 264] | 25.1 | 3.68 | < 1 |
| Cc1nn2c(C(C)C)c(C(=O)N[C@H]3CCOc4ccccc43)cnc2c1-c1cccc2c1OCO2 [Example 266] | 2 | 4.02 | < 1 |
| Cc1nc2c(-c3cccc(Cl)c3Cl)c(C)nn2c(C)c1C(=O)N[C@H]1CCOc2ccccc21 [Example 267] | 158 | 3.86 | < 10 |
| Cc1nn2c(C(C)C)c(C(=O)N[C@H]3CCc4ccccc43)cnc2c1-c1cccc(S(C)(=O)=O)c1 [Example 288] | 200 | 3.57 | < 10 |
| Cc1nn2c(C(C)C)c(C(=O)N[C@H]3CCc4ccccc43)cnc2c1-c1cccnc1 [Example 297] | 1260 | 2.19 | < 10 |
| CC(=O)Nc1cccc(-c2c(C)nn3c(C(C)C)c(C(=O)N[C@H]4CCc5ccccc54)cnc23)c1 [Example 298] | 1260 | 3.3 | < 10 |
| Cc1nn2c(C3CC3)c(C(=O)N[C@H]3CCc4ccccc43)cnc2c1-c1cccc(C(F)(F)F)c1 [Example 304] | 20 | 4.55 | < 1 |
| Cc1nn2c(C(C)C)c(C(=O)N[C@H]3CCc4ccccc43)cnc2c1-c1cccc(NS(C)(=O)=O)c1 [Example 308] | 1580 | 3.44 | < 10 |
| Cc1nn2c(C(C)C)c(C(=O)N[C@H]3CCc4ccccc43)cnc2c1-c1cccc(OC(F)(F)F)c1 [Example 309] | 31.6 | 5.48 | < 10 |
| COc1cc(-c2c(C)nn3c(C(C)C)c(C(=O)N[C@H]4CCc5ccccc54)cnc23)cc(C(F)(F)F)c1 [Example 312] | 25.1 | 5.41 | < 10 |
| Cc1nn2c(C(C)C)c(C(=O)N[C@H]3CCc4ccccc43)cnc2c1-c1ccnc(Cl)c1 [Example 313] | 158 | 4.23 | < 10 |
| Cc1nn2c(C(C)C)c(C(=O)N[C@H]3CCc4ccccc43)cnc2c1-c1cncc(Cl)c1 [Example 314] | 15.8 | 4.19 | < 0.1 |
| Cc1nn2c(C(C)C)c(C(=O)N[C@H]3CCc4ccccc43)cnc2c1-c1cccc(NC(=O)C(F)(F)F)c1 [Example 315] | 251 | 4.28 | < 1 |
| Cc1nn2c(C(C)C)c(C(=O)N[C@H]3CCc4ccccc43)cnc2c1-c1cccc(OCC2CC2)c1 [Example 319] | 25.1 | 5.28 | < 1 |
| Cc1nn2c(C(C)C)c(C(=O)N[C@H]3CCc4ccccc43)cnc2c1-c1cccc(OCC#N)c1 [Example 320] | 50.1 | 4.09 | < 10 |
| Cc1nn2c(C(C)C)c(C(=O)N[C@H]3CCc4ccccc43)cnc2c1-c1cccc(OC(C)C)c1 [Example 321] | 10 | 5.28 | < 1 |
| Cc1nn2c(C(C)C)c(C(=O)N[C@H]3CCc4ccccc43)cnc2c1-c1cccc(N2CCCC2)c1 [Example 329] | 25.1 | 5.44 | < 10 |
| Cc1nn2c(C(C)C)c(C(=O)N[C@H]3CCc4ccccc43)cnc2c1-c1ccc(OC(F)(F)F)cc1 [Example 331] | 251 | 5.41 | < 10 |
| Cc1nn2c(C(C)C)c(C(=O)N[C@H]3CCc4ccccc43)cnc2c1-c1ccc(C(F)(F)F)cc1 [Example 332] | 15.8 | 5.32 | < 1 |
| Cc1nn2c(C(C)C)c(C(=O)N[C@H]3CCc4ccccc43)cnc2c1-c1ccc(C(F)F)cc1 [Example 334] | 25.1 | 4.63 | < 10 |
| COCc1ccc(-c2c(C)nn3c(C(C)C)c(C(=O)N[C@H]4CCc5ccccc54)cnc23)cc1 [Example 340] | 39.8 | 4.41 | < 1 |

| Structure (SMILES) | EC50 (C. elegans Slo-1a) [nM] | chromatographic logP [1] | EC50 [2] [µg/mL] |
| --- | --- | --- | --- |
| CNc1ccc(-c2c(C)nn3c(C(C)C)c(C(=O)N[C@H]4CCc5ccccc54)cnc23)cc1 [Example 341] | 200 | 3.32 | < 10 |
| Cc1nn2c(C(C)C)c(C(=O)N[C@H]3CCc4ccccc43)cnc2c1-c1ccc(N(C)C)cc1 [Example 342] | 200 | 3.91 | < 10 |
| Cc1nn2c(C(C)C)c(C(=O)N[C@H]3CCCc4ccccc43)cnc2c1-c1ccc(F)cc1 [Example 343] | 20 | 4.95 | < 10 |
| Cc1nn2c(C(C)C)c(C(=O)N[C@H]3CCCc4ccccc43)cnc2c1-c1cccc(OC(F)(F)F)c1 [Example 345] | 12.6 | 5.82 | < 1 |
| COc1cccc(-c2c(C)nn3c(C(C)C)c(C(=O)N[C@H]4CCCc5ccccc54)cnc23)c1 [Example 346] | 12.6 | 4.82 | < 0.1 |
| Cc1nn2c(C(C)C)c(C(=O)N[C@H]3CCCc4ccccc43)cnc2c1-c1cccc(F)c1 [Example 347] | 39.8 | 5.04 | < 1 |
| Cc1nn2c(C(C)C)c(C(=O)N[C@H]3CCc4ccccc43)cnc2c1-c1cccc(CN2CCOCC2)c1 [Example 354] | 398 | 2.01 | < 10 |
| CCN(CC)Cc1cccc(-c2c(C)nn3c(C(C)C)c(C(=O)N[C@H]4CCc5ccccc54)cnc23)c1 [Example 355] | 2510 | 2.12 | < 10 |
| Cc1nn2c(C(C)C)c(C(=O)N[C@H]3CCc4ccccc43)cnc2c1-c1cccc(N2CCCCC2)c1 [Example 356] | 158 | 3.25 | < 10 |
| Cc1nn2c(C3CC3)c(C(=O)N[C@H]3CCc4ccccc43)cnc2c1-c1cccc(OC(F)(F)F)c1 [Example 360] | 12.6 | 4.72 | < 1 |
| Cc1nn2c(C(C)C)c(C(=O)N[C@H]3CCCc4ccccc43)cnc2c1-c1cccc(N(C)C)c1 [Example 361] | 15.8 | 4.32 | < 1 |
| Cc1nn2c(C(C)C)c(C(=O)N[C@H]3CCCc4ccccc43)cnc2c1-c1cncc(Cl)c1 [Example 362] | 100 | 4.52 | < 10 |
| COc1cc(-c2c(C)nn3c(C(C)C)c(C(=O)N[C@H]4CCCc5ccccc54)cnc23)cc(C(F)(F)F)c1 [Example 363] | 63.1 | 5.7 | < 10 |
| Cc1nn2c(C(C)C)c(C(=O)N[C@H]3CCc4ccccc43)cnc2c1-c1cccc(CN2CCCC2)c1 [Example 365] | 3160 | 2.08 | < 10 |
| Cc1nn2c(C(C)C)c(C(=O)N[C@H]3CCc4ccccc43)cnc2c1-c1cccc(CN(C)C)c1 [Example 366] | 1580 | 1.95 | < 10 |
| Cc1nn2c(C(C)C)c(C(=O)N[C@H]3CCc4ccccc43)cnc2c1-c1cccc(COCC(F)(F)F)c1 [Example 367] | 158 | 4.99 | < 10 |
| Cc1nn2c(C(C)C)c(C(=O)N[C@H]3CCc4ccccc43)cnc2c1-c1cccc(COC(C)C)c1 [Example 369] | 20 | 5.25 | < 10 |
| CCOCc1cccc(-c2c(C)nn3c(C(C)C)c(C(=O)N[C@H]4CCc5ccccc54)cnc23)c1 [Example 370] | 15.8 | 4.86 | < 1 |
| Cc1nn2c(C(C)C)c(C(=O)N[C@H]3CCc4ccccc43)cnc2c1-c1cccc(N2CCC2)c1 [Example 372] | 15.8 | 4.67 | < 1 |
| CCN(C)c1cccc(-c2c(C)nn3c(C(C)C)c(C(=O)N[C@H]4CCc5ccccc54)cnc23)c1 [Example 373] | 39.8 | 3.48 | < 1 |
| COCCn1cc(-c2c(C)nn3c(C(C)C)c(C(=O)N[C@H]4CCc5ccccc54)cnc23)cn1 [Example 375] | 200 | 3.26 | < 10 |
| COc1cc(Cl)cc(-c2c(C)nn3c(C(C)C)c(C(=O)N[C@H]4CCCc5ccccc54)cnc23)c1 [Example 378] | 50.1 | 5.55 | < 1 |
| CCN(CC)c1cccc(-c2c(C)nn3c(C(C)C)c(C(=O)N[C@H]4CCc5ccccc54)cnc23)c1 [Example 379] | 100 | 2.81 | < 1 |
| CSCc1cccc(-c2c(C)nn3c(C(C)C)c(C(=O)N[C@H]4CCc5ccccc54)cnc23)c1 [Example 388] | 7.94 | 5 | < 1 |
| Cc1nn2c(C(C)C)c(C(=O)N[C@H]3CCc4ccccc43)cnc2c1-c1cccc(COCC2CC2)c1 [Example 389] | 251 | 5.24 | < 10 |
